pIC50: −log10 of the molar value. Structures can show the parent of a compound that is named as a salt.
Key:
[1] = target: T1, c-Met (cytoplasmic domain) (Homo sapiens, UniProt P08581); assay: c-Met Kinase Assay (ELISA/TRF, PLC-γ substrate); type: biochemical; conditions: 3 μM ATP (Km level); read-out: c-Met Kinase Inhibition (IC50)
T1 construct: Reactions were initiated with 30 ng/mL c-Met (cytoplasmic domain, Invitrogen Corporation #PV3143); purchased Invitrogen Corporation PV3143
Method in brief: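 Readout is TRF of europium anti-phosphotyrosine (PT66) bound to GST–PLC-γ substrate coated at 10 μg/mL, after a 15 min, 37 °C reaction started with 30 ng/mL c-Met cytoplasmic domain. Percent inhibition plotted against log compound concentration and fitted (variable slope) for IC50.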

[2] = target: baculovirus-expressed ALK (Homo sapiens, UniProt Q9UM73); assay: ALK Kinase Assay (ELISA/TRF, PLC-γ substrate); type: biochemical; conditions: read-out: ALK Kinase Inhibition (IC50); note: 1 µM ATP (Km level)
baculovirus-expressed ALK, sequence (Q9UM73 19-1620): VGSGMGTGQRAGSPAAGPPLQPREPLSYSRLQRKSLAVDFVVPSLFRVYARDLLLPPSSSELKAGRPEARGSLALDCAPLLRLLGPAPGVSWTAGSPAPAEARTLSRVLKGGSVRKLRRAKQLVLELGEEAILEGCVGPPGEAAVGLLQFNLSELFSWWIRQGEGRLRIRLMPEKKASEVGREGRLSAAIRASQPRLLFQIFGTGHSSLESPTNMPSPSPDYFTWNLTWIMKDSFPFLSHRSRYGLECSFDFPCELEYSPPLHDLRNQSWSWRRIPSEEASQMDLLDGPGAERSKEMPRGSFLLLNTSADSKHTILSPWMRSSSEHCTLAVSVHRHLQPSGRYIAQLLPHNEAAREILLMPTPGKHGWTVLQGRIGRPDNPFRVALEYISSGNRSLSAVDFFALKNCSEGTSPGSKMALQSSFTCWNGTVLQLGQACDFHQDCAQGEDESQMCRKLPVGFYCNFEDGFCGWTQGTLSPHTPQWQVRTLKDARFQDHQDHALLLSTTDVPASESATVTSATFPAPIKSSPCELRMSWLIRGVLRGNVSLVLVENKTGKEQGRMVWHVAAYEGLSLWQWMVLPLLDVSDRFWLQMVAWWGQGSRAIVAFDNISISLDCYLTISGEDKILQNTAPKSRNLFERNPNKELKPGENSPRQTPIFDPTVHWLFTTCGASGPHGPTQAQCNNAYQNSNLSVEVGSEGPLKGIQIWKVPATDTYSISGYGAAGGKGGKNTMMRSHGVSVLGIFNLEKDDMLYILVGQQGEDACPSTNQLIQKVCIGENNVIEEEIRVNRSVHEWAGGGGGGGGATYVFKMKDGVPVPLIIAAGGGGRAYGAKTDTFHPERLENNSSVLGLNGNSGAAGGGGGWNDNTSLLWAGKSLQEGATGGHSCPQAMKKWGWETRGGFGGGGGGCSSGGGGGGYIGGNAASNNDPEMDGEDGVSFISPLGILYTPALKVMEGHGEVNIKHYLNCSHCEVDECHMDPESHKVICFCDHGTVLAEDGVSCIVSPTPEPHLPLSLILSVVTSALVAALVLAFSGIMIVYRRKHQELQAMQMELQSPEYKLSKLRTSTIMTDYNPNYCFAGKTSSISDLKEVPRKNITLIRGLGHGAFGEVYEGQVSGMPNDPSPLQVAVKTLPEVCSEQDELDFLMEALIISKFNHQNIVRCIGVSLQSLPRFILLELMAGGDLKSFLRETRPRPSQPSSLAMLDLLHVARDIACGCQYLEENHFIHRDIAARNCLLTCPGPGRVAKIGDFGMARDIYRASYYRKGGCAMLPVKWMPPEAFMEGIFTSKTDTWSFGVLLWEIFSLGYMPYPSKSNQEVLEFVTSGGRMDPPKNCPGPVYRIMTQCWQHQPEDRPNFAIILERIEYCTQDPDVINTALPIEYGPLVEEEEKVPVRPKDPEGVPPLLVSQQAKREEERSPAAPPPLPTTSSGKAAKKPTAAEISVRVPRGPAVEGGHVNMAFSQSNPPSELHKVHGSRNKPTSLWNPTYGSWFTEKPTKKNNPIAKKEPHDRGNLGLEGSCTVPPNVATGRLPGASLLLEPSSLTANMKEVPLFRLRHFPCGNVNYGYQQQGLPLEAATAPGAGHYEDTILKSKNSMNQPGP
Method in brief: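 IC50 values fitted by nonlinear sigmoidal regression (variable slope) of percent inhibition against log compound concentration. Read-out was TRF of Eu-N1 anti-phosphotyrosine antibody bound to phosphorylated, plate-coated GST-PLC-γ (10 µg/mL). Kinase reaction used ALK at 30 ng/ml for 15 min at 37 °C.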

NPM-ALK = target: T2, NPM-ALK (Homo sapiens, UniProt Q9UM73); assay: ALK Cellular Assay (phospho-NPM-ALK immunoblot / ALK tyrosine phosphorylation ELISA); type: cell-based; conditions: for inhibition at 1 µM: NPM-ALK, 1 μM compound, read-out: ALK Cellular Activity Inhibition Score at 1 μM
T2 construct: a fusion protein consisting of nucleophosmin (NMP) and the intracellular domain of ALK; the other entry of the earlier key: NPM1 (P06748, Nucleophosmin)
T2 sequence (Q9UM73 with tags, fused parts or gaps): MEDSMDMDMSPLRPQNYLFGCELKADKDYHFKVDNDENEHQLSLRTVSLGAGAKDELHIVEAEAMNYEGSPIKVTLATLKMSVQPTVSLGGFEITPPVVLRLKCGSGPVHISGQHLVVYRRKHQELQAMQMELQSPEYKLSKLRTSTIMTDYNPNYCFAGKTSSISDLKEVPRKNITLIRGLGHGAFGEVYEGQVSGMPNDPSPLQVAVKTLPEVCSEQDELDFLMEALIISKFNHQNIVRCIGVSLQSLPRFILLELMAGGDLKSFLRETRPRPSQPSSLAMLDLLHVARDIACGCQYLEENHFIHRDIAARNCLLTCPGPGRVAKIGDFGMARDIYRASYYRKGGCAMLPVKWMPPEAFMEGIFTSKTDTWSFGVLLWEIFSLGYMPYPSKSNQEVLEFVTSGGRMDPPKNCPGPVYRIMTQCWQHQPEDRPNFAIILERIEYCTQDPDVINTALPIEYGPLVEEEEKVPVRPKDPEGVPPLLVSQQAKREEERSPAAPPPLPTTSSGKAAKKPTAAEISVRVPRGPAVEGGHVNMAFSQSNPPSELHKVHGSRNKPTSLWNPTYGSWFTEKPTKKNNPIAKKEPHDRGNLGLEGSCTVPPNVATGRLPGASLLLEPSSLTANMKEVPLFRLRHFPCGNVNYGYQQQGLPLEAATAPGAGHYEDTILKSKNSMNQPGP
Method: Immunoblotting of phospho-NPM-ALK and total NPM-ALK from cell lysates was carried out according to the protocols provided by the antibody suppliers. In brief, after treatment of Example compounds, cells were lysed in Frak lysis buffer [10 mM Tris, pH 7.5, 1% Triton X-100, 50 mM sodium chloride, 20 mM sodium fluoride, 2 mM sodium pyrophosphate, 0.1% BSA, plus freshly prepared 1 mM activated sodium vanadate, 1 mM dithiothreitol (#165680050, ARCOS Organics, Geel, Belgium), and 1 mM PMSF (#837091, Boehringer Mannheim Biochemicals, Indianapolis, Ind.), protease inhibitors cocktail III (#539134-1Set, Calbiochem, 1:100 dilution)]. After brief sonication, the lysates were cleared by centrifugation, mixed with sample buffer and subjected to SDS-PAGE. Following transfer to membranes, the membranes were blotted with either rabbit phospho-NPM-ALK(Y664) (Cat^#3341) or ALK antibody (Cat^#3342) from Cell Signaling Technology (Beverly, Mass.), and then the HRP-conjugated goat anti-rabbit antibodies (Santa Cruz, Calif.) after washed in TBS/0.2% Tween-20. The protein bands were visualized with ECL Western Blotting detection reagents (RPN2106, Amersham Biosciences, Buckinghamshire, UK) and quantitated with gel-pro analyzer 3.1 software.
To measure ALK tyrosine phosphorylation in cells with an ELISA assay, fluoronunc plates (Cat^#437796, Nalge Nunc, Rochester, N.Y.) were pre-coated with goat anti-mouse IgG, and incubated with the capture mouse ALK antibody (Cat^#35-4300, Zymed, Seattle, Wash.) diluted 1:1000 in Superblock (Pierce, Rockford, Ill.). Following blocking, cell lysates were added to plates and incubated overnight at 4° C. Plates were incubated with the detecting antibody, anti-phospho-ALK (Y664) (Cell Signaling Technology), diluted at 1:2000, followed by incubation with goat anti-rabbit-IgG alkaline phosphatase to amplify the detection. Wells were exposed to the fluorogenic substrate 4-MeUP (#3368-04-5, Calbiochem) and the signal quantified using a CytoFluor® (series 4000) Fluorescence Multi-Well Plate Reader (Applied Biosystems, Foster City, Calif.).

T1 sequence (P08581 956-1390 limits assumed): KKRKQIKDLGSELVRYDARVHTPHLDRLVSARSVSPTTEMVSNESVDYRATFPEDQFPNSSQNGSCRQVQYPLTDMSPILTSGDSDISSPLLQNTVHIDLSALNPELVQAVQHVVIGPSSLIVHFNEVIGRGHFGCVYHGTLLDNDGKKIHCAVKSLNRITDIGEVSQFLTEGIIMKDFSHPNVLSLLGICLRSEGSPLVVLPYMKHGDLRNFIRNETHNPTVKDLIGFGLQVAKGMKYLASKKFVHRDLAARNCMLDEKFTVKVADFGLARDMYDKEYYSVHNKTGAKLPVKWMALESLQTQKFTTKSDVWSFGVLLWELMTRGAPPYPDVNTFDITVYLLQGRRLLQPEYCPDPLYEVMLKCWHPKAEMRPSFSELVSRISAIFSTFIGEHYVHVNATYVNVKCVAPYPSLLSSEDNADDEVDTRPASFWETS

Compound | pIC50 [1] | pIC50 [2] | inhibition at 1 µM (NPM-ALK) [%] | melting point | pIC50 (NPM-ALK)
O=C(O)c1ccc(-c2cnc3c(c2)N(Cc2c(F)ccc(F)c2Cl)C(=O)CN3)cc1 [Example 6, 4-[1-(2-Chloro-3,6-difluorobenzyl)-2-oxo-1,2,3,4-tetrahydropyrido[2,3-b]pyrazin-7-yl]benzoic acid] | 4.00 to 5.00 | 6.00 to 7.00 | 0 to 25 | > 300 °C | –
O=C(c1ccc(-c2cnc3c(c2)N(Cc2ccccc2)CCN3)cc1)N1CCC[C@H]1CN1CCCC1 [Example 38, [4-(1-Benzyl-1,2,3,4-tetrahydropyrido[2,3-b]pyrazin-7-yl)phenyl]-((S)-2-pyrrolidinylmethylpyrrolidin-1-yl)methanone, trifluoroacetic acid salt] | 6.00 to 7.00 | 6.00 to 7.00 | – | – | 6.12 to 6.30
O=C1CNc2ncc(-c3ccc(NS(=O)(=O)CCN4CCCC4)cc3)cc2N1Cc1cc(F)ccc1F [Example 48, 2-Pyrrolidin-1-yl-ethanesulfonic acid{4-[1-(2,5-difluorobenzyl)-2-oxo-1,2,3,4-tetrahydropyrido[2,3-b]pyrazin-7-yl]phenyl}-amide] | 5.00 to 6.00 | 6.00 to 7.00 | 26 to 50 | > 300 °C | –
O=S(=O)(CCN1CCCC1)Nc1ccc(-c2cnc3c(c2)N(Cc2cc(F)ccc2F)CCN3)cc1 [Example 51, 2-Pyrrolidin-1-yl-ethanesulfonic acid{4-[1-(2,5-difluorobenzyl)-1,2,3,4-tetrahydropyrido[2,3-b]pyrazin-7-yl]phenyl}-amide] | 4.00 to 5.00 | 6.00 to 7.00 | 26 to 50 | – | –
O=C1CNc2ncc(-c3ccc(C(=O)N4CCC[C@H]4CN4CCCC4)cc3)cc2N1Cc1cc(F)ccc1F [Example 57, 1-(2,5-Difluorobenzyl)-7-[4-((S)-2-[(pyrrolidin-1-yl)methyl]pyrrolidine-1-carbonyl)phenyl]-3,4-dihydro-1H-pyrido[2,3-b]pyrazin-2-one] | 6.00 to 7.00 | 6.00 to 7.00 | 0 to 25 | 125 °C | –
O=C(NCCN1CCCC1)c1ccc(-c2cnc3c(c2)N(Cc2cc(F)ccc2F)C(=O)CN3)cc1 [Example 58, 4-[1-(2,5-Difluorobenzyl)-2-oxo-1,2,3,4-tetrahydropyrido[2,3-b]pyrazin-7-yl]-N-(2-pyrrolidin-1-yl-ethyl)benzamide] | 4.00 to 5.00 | 6.00 to 7.00 | 0 to 25 | 235 °C (dec.) | –
O=C(c1ccc(-c2cnc3c(c2)N(Cc2cc(F)ccc2F)CCN3)cc1)N1CCC[C@H]1CN1CCCC1 [Example 65, {4-[1-(2,5-Difluorobenzyl)-1,2,3,4-tetrahydropyrido[2,3-b]pyrazin-7-yl]phenyl}-((S)-2-((pyrrolidin-1-yl)methyl)pyrrolidin-1-yl)methanone] | 5.00 to 6.00 | > 7.00 | – | 143 to 144 °C | ≥ 6.60
O=C(c1ccc(-c2cnc3c(c2)N(Cc2cc(F)ccc2F)CCN3)cc1)N1CCC(N2CCCC2)CC1 [Example 66, {4-[1-(2,5-Difluorobenzyl)-1,2,3,4-tetrahydropyrido[2,3-b]pyrazin-7-yl]phenyl}-(4-(pyrrolidin-1-yl)piperidin-1-yl)methanone] | 5.00 to 6.00 | > 7.00 | – | 202 to 204 °C | ≥ 6.60
Fc1ccc(F)c(CN2CCNc3ncc(-c4ccc(N5CCOCC5)nc4)cc32)c1Cl [Example 105, 1-(2-Chloro-3,6-difluorobenzyl)-7-(6-morpholin-4-yl-pyridin-3-yl)-1,2,3,4-tetrahydropyrido[2,3-b]pyrazine] | 5.00 to 6.00 | > 7.00 | – | – | 6.00 to 6.12
CN1CCN(c2ncc(-c3cnc4c(c3)N(Cc3c(F)ccc(F)c3Cl)CCN4)cn2)CC1 [Example 106, 1-(2-Chloro-3,6-difluorobenzyl)-7-[2-(4-methylpiperazin-1-yl)-pyrimidin-5-yl]-1,2,3,4-tetrahydropyrido[2,3-b]pyrazine] | 5.00 to 6.00 | > 7.00 | – | 194 to 195 °C | ≥ 6.60
CN1CCN(C(=O)c2ccc(-c3cnc4c(c3)N(Cc3cc(Cl)ccc3Cl)CCN4)cc2)CC1 [Example 132, {4-[1-(2,5-Dichlorobenzyl)-1,2,3,4-tetrahydropyrido[2,3-b]pyrazin-7-yl]phenyl}-(4-methylpiperazin-1-yl)methanone] | 5.00 to 6.00 | > 7.00 | – | – | 6.30 to 6.60
O=C1CNc2ncc(-c3ccc(C(=O)N4CCC[C@H]4CN4CCCC4)cc3)cc2N1Cc1c(Cl)cccc1Cl [Example 141, S-1-(2,6-Dichlorobenzyl)-7-[4-((2-pyrrolidin-1-yl)methylpyrrolidine-1-carbonyl)phenyl]-3,4-dihydro-1H-pyrido[2,3-b]pyrazin-2-one] | 5.00 to 6.00 | 6.00 to 7.00 | 51 to 75 | 188 °C | –
CN(C)CCCCNC(=O)c1ccc(-c2cnc3c(c2)N(Cc2c(Cl)cccc2Cl)C(=O)CN3)cc1 [Example 144, 4-[1-(2,6-Dichlorobenzyl)-2-oxo-1,2,3,4-tetrahydropyrido[2,3-b]pyrazin-7-yl]-N-(4-dimethylaminobutyl)benzamide, trifluoroacetic acid salt] | 5.00 to 6.00 | 6.00 to 7.00 | 0 to 25 | – | –
CC(c1cc(F)ccc1F)N1CCNc2ncc(-c3ccc(C(=O)N4CCC[C@H]4CN4CCCC4)cc3)cc21 (stereo partly drawn) [Example 154, S-(4-{1-[1-(2,5-Difluorophenyl)ethyl]-1,2,3,4-tetrahydropyrido[2,3-b]pyrazin-7-yl}phenyl)-{2-[(pyrrolidin-1-yl)methyl]pyrrolidin-1-yl}methanone] | 4.00 to 5.00 | > 7.00 | – | – | 6.30 to 6.60
O=C(c1ccc(-c2cnc3c(c2)N(Cc2cc(Cl)ccc2Cl)C(=O)CN3)cc1)N1CCC(N2CCCC2)CC1 [Example 156, 1-(2,5-Dichlorobenzyl)-7-[4-(4-(pyrrolidin-1-yl)piperidine-1-carbonyl)phenyl]-3,4-dihydro-1H-pyrido[2,3-b]pyrazin-2-one] | 6.00 to 7.00 | > 7.00 | – | > 200 °C | 6.30 to 6.60
CN1CCN(c2ccc(-c3cnc4c(c3)N(Cc3cc(Cl)ccc3Cl)CCN4)cn2)CC1 [Example 180, 1-(2,5-Dichlorobenzyl)-7-[6-(4-methylpiperazin-1-yl)pyridin-3-yl]-1,2,3,4-tetrahydropyrido[2,3-b]pyrazine] | 5.00 to 6.00 | > 7.00 | – | – | 6.30 to 6.60
Fc1ccc(F)c(CN2CCNc3ncc(-c4cccc(N5CCOCC5)c4)cc32)c1Cl [Example 189, 1-(2-Chloro-3,6-difluorobenzyl)-7-(3-morpholin-4-yl-phenyl)-1,2,3,4-tetrahydropyrido[2,3-b]pyrazine] | 6.00 to 7.00 | > 7.00 | – | – | ≥ 6.60
COC1CCN(C(=O)c2ccc(-c3cnc4c(c3)N(Cc3cc(Cl)ccc3C(F)(F)F)CCN4)cc2)CC1 [Example 205] | 5.00 to 6.00 | > 7.00 | – | – | 6.30 to 6.60
CN(C)CCCCNC(=O)c1cnc2c(c1)N(Cc1cc(Cl)ccc1C(F)(F)F)CCN2 [Example 295, 1-[5-Chloro-2-(trifluoromethyl)benzyl]-1,2,3,4-tetrahydropyrido[2,3-b]pyrazine-7-carboxylic acid [4-(dimethylamino)butyl]amide] | 5.00 to 6.00 | > 7.00 | – | – | 6.30 to 6.60

— patent publication US7601716B2, “Pyridopyrazines and derivatives thereof as ALK and c-Met inhibitors” (Cephalon, Inc., priority 2006, dated 2009)
